Reference: patent publication US20160122342A1, “ENHANCER OF ZESTE HOMOLOG 2 INHIBITORS” (GLAXOSMITHKLINE INTELLECTUAL PROPERTY (NO.2) LIMITED, priority 2013, published 2016)
Structures can show the parent of a compound that is named as a salt.

What was measured:
[1] = target: T1, EZH2 within the PRC2 complex (Homo sapiens, UniProt Q15910); assay: Assay Protocol 1: EZH2 methyltransferase scintillation proximity assay, mononucleosome substrate; type: biochemical; conditions: Assay Protocol 1; SPA, 3H-SAM, Histone H3 of mononucleosome purified from HeLa cells; 5-member PRC2 complex; read-out: EZH2 IC50
T1 construct: FLAG; made in house; host or cells: Sf9 cells
Experimental: Compounds contained herein were evaluated for their ability to inhibit the methyltransferase activity of EZH2 within the PRC2 complex. […] Mononucleosomes were captured on SPA beads and the resulting signal is read on a ViewLux plate reader. • 1. Prepare 10 mM stock of compounds from solid in 100% DMSO. • 2. […] Dispense 100 nL of compound from the dilution plate into reaction plates (Grenier Bio-One, 384-well, Cat#784075). Prepare the following solutions: • 1. 50 mM Tris-HCl, pH 8: Per 1 L of base buffer, combine 1 M Tris-HCl, pH 8 (50 mL) and distilled water (950 mL). • 2. 1× Assay Buffer: […] SPA Bead Suspension: […] Per 10 mL of 2× Substrate Solution, combine 1× Assay Buffer (9728.55 uL), 800 ug/mL mononucleosomes (125 uL), 1 mM cold SAM (4 uL), and 7.02 uM 3H-SAM (142.45 uL; 0.55 mCi/mL) to provide a final concentration of 5 ug/mL nucleosomes, 0.2 uM cold SAM, and 0.05 uM 3H-SAM. • 6. 2.67× Quench/Bead Mixture: Per 10 mL of 2.67× Quench/Bead Mixture, combine ddH2O (9358 uL), 10 mM cold SAM (267 uL), 40 mg/mL Bead Suspension (375 uL) to provide a final concentration of 100 uM cold SAM and 0.5 mg/mL SPA beads. • 1. Dispense 100 nL/well of 100× Compound to test wells (as noted above). • 2. […] • 1. Dispense 5 uL/well of 1× Assay Buffer to column 18 (low control reactions). • 2. Dispense 5 uL/well of 2× Enzyme Solution to columns 1-17, 19-24. • 3. Spin assay plates for ˜1 minute at 500 rpm. • 4. Stack the assay plates, covering the top plate. • 5. Incubate the compound/DMSO with the enzyme for 30 minutes at room temperature. • 6. Dispense 5 uL/well of 2× Substrate Solution to columns 1-24. • 7. Spin assay plates for ˜1 minute at 500 rpm. • 8. Stack the assay plates, covering the top plate. • 9. Incubate the assay plates at room temperature for 1 hour. • 1. Dispense 5 uL/well of the 3× Quench/Bead Mixture to columns 1-24. • 2. Seal the top of each assay plate with adhesive TopSeal. • 3. Spin assay plates for ˜1 minute at 500 rpm. • 4. […] • 1. Read the assay plates on the Viewlux Plate Reader utilizing the 613 nm emission filter with a 300 s read time. Reagent addition can be done manually or with automated liquid handler. The final DMSO concentration in this assay is 1%. The positive control is in column 6; negative control is in column 18. Final starting concentration of compounds is 100 μM. Percent inhibition was calculated relative to the DMSO control for each compound concentration and the resulting values were fit using standard IC50 fitting parameters within the ABASE data fitting software package.

[2] = target: T1, EZH2 within the PRC2 complex; assay: Assay Protocol 2: EZH2 methyltransferase scintillation proximity assay, biotinylated histone H3 peptide substrate; type: biochemical; conditions: SPA, 3H-SAM, biotinylated unmethylated histone H3K27 peptide substrate, 5-member PRC2 complex
Experimental: Compounds contained herein were evaluated for their ability to inhibit the methyltransferase activity of EZH2 within the PRC2 complex. […] The peptides were captured on streptavidin-coated SPA beads and the resulting signal was read on a ViewLux plate reader. • 4. Prepare 10 mM stock of compounds from solid in 100% DMSO. • 5. […] Dispense 10 nL of compound from the dilution plate into reaction plates (Corning, 384-well polystyrene NBS, Cat#3673). Prepare the following solutions: • 7. 1× Base Buffer, 50 mM Tris-HCl, pH 8, 2 mM MgCl2: Per 1 L of base buffer, combine 1 M Tris-HCl, pH 8 (50 mL), 1 M MgCl2 (2 mL), and distilled water (948 mL). • 8. 1× Assay Buffer: Per 10 mL of 1× Assay Buffer, combine 1× Base Buffer (9.96 mL), 1 M DTT (40 uL), and 10% Tween-20 (1 uL) to provide a final concentration of 50 mM Tris-HCl, pH 8, 2 mM MgCl2, 4 mM DTT, 0.001% Tween-20. • 9. 2× Enzyme Solution: […] SPA Bead Solution: Per 1 mL of SPA Bead Solution, combine Streptavidin coated SPA beads (PerkinElmer, Cat# RPNQ0261, 40 mg) and 1× Assay Buffer (1 mL) to provide a working concentration of 40 mg/mL. • 11. 2× Substrate Solution: Per 10 mL of 2× Substrate Solution, combine 40 mg/mL SPA Bead Solution (375 uL), 1 mM biotinylated histone H3K27 peptide (200 uL), 12.5 uM 3H-SAM (240 uL; 1 mCi/mL), 1 mM cold SAM (57 uL), and 1× Assay Buffer (9.13 mL) to provide a final concentration of 0.75 mg/mL SPA Bead Solution, 10 uM biotinylated histone H3K27 peptide, 0.15 uM 3H-SAM (˜12 uCi/mL 3H-SAM), and 2.85 uM cold SAM. • 12. 2.67× Quench Solution: Per 10 mL of 2.67× Quench Solution, combine 1× Assay Buffer (9.73 mL) and 10 mM cold SAM (267 uL) to provide a final concentration of 100 uM cold SAM. • 3. […] Dispense 5 uL/well of 1× Assay Buffer to column 18 (low control reactions). • 11. Dispense 5 uL/well of 2× Substrate Solution to columns 1-24 (note: substrate solution should be mixed to ensure homogeneous bead suspension before dispensing into matrix reservoir). • 12. Dispense 5 uL/well of 2× Enzyme Solution to columns 1-17, 19-24. • 13. Incubate the reaction for 60 min at room temperature. • 5. Dispense 6 uL/well of the 2.67× Quench Solution to columns 1-24. • 6. Seal assay plates and spin for ˜1 min at 500 rpm. • 7. Dark adapt plates in the ViewLux instrument for 15-60 min. • 2. Read the assay plates on the Viewlux Plate Reader utilizing the 613 nm emission filter or clear filter (300 s exposure). Reagent addition can be done manually or with automated liquid handler. Percent inhibition was calculated relative to the DMSO control for each compound concentration and the resulting values were fit using standard IC50 fitting parameters within the ABASE data fitting software package.

T1 sequence (Q15910 whole entry): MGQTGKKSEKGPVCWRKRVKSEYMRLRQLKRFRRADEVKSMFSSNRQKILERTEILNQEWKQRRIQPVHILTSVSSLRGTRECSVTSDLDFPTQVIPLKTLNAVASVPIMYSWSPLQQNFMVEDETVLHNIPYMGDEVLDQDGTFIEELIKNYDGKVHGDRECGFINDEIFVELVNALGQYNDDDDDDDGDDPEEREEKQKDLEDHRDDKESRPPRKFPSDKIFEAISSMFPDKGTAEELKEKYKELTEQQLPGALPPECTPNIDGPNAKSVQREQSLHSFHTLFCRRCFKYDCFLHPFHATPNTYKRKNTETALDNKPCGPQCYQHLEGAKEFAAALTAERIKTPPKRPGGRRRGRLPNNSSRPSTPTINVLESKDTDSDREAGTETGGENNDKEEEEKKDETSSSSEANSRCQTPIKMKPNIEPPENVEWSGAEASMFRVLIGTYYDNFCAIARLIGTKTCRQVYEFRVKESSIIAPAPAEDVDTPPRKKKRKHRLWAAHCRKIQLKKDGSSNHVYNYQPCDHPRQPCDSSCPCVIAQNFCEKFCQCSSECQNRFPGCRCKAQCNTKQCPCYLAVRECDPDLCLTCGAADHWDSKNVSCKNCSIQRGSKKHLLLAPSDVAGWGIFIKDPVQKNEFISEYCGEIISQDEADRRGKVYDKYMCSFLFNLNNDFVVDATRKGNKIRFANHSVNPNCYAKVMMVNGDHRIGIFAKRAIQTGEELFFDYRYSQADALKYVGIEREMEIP
T1 sequence (O75530 whole entry partner): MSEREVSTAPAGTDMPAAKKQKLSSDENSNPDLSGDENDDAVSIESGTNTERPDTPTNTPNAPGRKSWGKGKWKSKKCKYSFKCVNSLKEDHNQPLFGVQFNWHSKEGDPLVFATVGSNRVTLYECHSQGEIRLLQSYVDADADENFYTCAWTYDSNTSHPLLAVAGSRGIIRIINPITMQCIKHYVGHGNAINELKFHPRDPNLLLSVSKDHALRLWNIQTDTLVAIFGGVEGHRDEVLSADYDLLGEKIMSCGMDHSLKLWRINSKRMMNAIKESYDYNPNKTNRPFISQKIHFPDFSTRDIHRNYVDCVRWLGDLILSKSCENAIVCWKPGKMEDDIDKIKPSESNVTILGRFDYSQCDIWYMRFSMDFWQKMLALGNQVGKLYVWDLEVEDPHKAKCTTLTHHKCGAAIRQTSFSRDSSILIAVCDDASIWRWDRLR
T1 sequence (Q15022 whole entry partner): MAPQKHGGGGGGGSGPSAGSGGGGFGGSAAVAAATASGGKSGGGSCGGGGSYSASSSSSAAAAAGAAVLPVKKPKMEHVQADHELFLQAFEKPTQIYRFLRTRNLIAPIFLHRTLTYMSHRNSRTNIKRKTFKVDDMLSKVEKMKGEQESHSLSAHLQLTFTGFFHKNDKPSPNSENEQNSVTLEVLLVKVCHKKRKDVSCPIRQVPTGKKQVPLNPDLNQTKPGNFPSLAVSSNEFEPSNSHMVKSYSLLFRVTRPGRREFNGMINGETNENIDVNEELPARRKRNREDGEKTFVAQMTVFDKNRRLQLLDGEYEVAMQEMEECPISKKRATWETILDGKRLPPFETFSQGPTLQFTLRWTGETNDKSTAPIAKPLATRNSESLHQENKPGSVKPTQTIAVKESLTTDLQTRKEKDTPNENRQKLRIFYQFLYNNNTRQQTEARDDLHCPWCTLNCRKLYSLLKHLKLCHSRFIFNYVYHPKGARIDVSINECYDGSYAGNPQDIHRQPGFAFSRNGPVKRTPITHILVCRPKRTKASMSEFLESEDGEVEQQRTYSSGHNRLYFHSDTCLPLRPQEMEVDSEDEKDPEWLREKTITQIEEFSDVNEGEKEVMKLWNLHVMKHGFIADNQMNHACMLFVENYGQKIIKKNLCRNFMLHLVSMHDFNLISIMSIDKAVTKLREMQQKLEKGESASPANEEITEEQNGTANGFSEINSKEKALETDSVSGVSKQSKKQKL
T1 sequence (Q09028 whole entry partner): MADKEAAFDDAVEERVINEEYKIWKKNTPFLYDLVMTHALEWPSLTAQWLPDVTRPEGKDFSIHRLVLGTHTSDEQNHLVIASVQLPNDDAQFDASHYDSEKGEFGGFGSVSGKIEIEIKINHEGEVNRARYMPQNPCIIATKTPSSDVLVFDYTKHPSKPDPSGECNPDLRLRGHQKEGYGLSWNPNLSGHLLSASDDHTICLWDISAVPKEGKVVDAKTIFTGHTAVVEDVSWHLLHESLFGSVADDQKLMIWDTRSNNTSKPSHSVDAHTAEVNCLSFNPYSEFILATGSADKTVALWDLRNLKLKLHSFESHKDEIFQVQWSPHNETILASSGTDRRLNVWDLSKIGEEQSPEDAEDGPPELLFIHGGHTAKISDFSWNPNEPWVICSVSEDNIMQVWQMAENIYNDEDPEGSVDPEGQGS
T1 sequence (Q6ZN18 whole entry partner): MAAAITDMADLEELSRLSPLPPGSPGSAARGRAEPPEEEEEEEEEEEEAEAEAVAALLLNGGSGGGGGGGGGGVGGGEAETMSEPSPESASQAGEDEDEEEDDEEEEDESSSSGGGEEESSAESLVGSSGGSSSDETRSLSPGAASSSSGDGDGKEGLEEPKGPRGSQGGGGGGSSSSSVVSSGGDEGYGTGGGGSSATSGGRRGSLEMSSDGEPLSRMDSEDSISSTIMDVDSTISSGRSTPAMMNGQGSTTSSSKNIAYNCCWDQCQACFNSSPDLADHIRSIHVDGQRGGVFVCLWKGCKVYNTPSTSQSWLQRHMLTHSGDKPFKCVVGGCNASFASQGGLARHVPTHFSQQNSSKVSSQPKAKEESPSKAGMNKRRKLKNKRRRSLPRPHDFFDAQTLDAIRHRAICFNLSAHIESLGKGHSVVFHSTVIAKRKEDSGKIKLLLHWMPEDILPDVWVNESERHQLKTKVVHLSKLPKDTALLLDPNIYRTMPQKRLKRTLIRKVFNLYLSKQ

IC50 [1] | IC50 [2] | Compound
32 nM | 100 nM | CCN(c1cccc2c1C/C=C/CCCc1cc(C)[nH]c(=O)c1CNC2=O)C1CCNCC1 [Example 40, (E)-11-(ethyl(piperidin-4-yl)amino)-3-methyl-5,6,7,10,16,17-hexahydro-1H-benzo[c]pyrido[4,3-k][1]azacyclotridecine-1,15(2H)-dione]
100 nM | 316 nM | Cc1cc2c(c(=O)[nH]1)CNC(=O)c1cc(Cl)cc(OC(C)C)c1C/C=C/CC2 [Example 18, (E)-12-chloro-10-isopropoxy-3-methyl-5,6,15,16-tetrahydrobenzo[c]pyrido[4,3-j][1]azacyclododecine-1,14(2H,9H)-dione]
16 nM | 79 nM | CCN(c1cccc2c1C/C=C/CCc1cc(C)[nH]c(=O)c1CNC2=O)C1CCC(F)(F)CC1 [Example 30, (E)-10-((4,4-difluorocyclohexyl)(ethyl)amino)-3-methyl-5,6,15,16-tetrahydrobenzo[c]pyrido[4,3-j][1]azacyclododecine-1,14(2H,9H)-dione]
63 nM | 126 nM | CCN(c1cccc2c1C/C=C/CCc1cc(C)[nH]c(=O)c1CNC2=O)C1CCN(S(C)(=O)=O)CC1 [Example 34, (E)-10-(ethyl(1-(methylsulfonyl)piperidin-4-yl)amino)-3-methyl-5,6,15,16-tetrahydrobenzo[c]pyrido[4,3-j][1]azacyclododecine-1,14(2H,9H)-dione]
40 nM | 40 nM | CCN(c1cccc2c1C/C=C/CCc1cc(C)[nH]c(=O)c1CNC2=O)C1CCN(CC2CC2)CC1 [Example 41, (E)-10-((1-(cyclopropylmethyl)piperidin-4-yl)(ethyl)amino)-3-methyl-5,6,15,16-tetrahydrobenzo[c]pyrido[4,3-j][1]azacyclododecine-1,14(2H,9H)-dione]
100 nM | 398 nM | CCN(c1cccc2c1C/C=C\CCCc1cc(C)[nH]c(=O)c1CNC2=O)C1CCOCC1 [Example 21, (Z)-11-(ethyl(tetrahydro-2H-pyran-4-yl)amino)-3-methyl-5,6,7,10,16,17-hexahydro-1H-benzo[c]pyrido[4,3-k][1]azacyclotridecine-1,15(2H)-dione]
32 nM | 126 nM | CCN(c1cc(Cl)cc2c1C/C=C/CCc1cc(C)[nH]c(=O)c1CNC2=O)C1CCOCC1 [Example 17, (E)-12-chloro-10-(ethyl(tetrahydro-2H-pyran-4-yl)amino)-3-methyl-5,6,15,16-tetrahydrobenzo[c]pyrido[4,3-j][1]azacyclododecine-1,14(2H,9H)-dione]
50 nM | 158 nM | CCN(c1cccc2c1C/C=C/CCc1cc(C)[nH]c(=O)c1CNC2=O)C1CCN(C(C)C)CC1 [Example 32, (E)-10-(ethyl(1-isopropylpiperidin-4-yl)amino)-3-methyl-5,6,15,16-tetrahydrobenzo[c]pyrido[4,3-j][1]azacyclododecine-1,14(2H,9H)-dione]

The next lines start with the compound.

Compound | IC50 [1] | IC50 [2]
CCN(c1cccc2c1C/C=C/CCc1cc(C)[nH]c(=O)c1CNC2=O)C1CCOCC1 [Example 6, (E)-10-(ethyl(tetrahydro-2H-pyran-4-yl)amino)-3-methyl-5,6,15,16-tetrahydrobenzo[c]pyrido[4,3-j][1]azacyclododecine-1,14(2H,9H)-dione hydrochloride, 0.10 1,4-dioxane solvate] | 100 nM | 158 nM
CCN(c1cccc2c1C/C=C/CCc1cc(C)[nH]c(=O)c1CN(C)C2=O)C1CCOCC1 [Example 9, (E)-10-(ethyl(tetrahydro-2H-pyran-4-yl)amino)-3,15-dimethyl-5,6,15,16-tetrahydrobenzo[c]pyrido[4,3-j][1]azacyclododecine-1,14(2H,9H)-dione] | 79 nM | 126 nM
Cc1cc2c(c(=O)[nH]1)CNC(=O)c1cc(Cl)cc(O[C@H]3CC[C@H](N(C)C)CC3)c1C/C=C/CCC2 [Example 8, (E)-13-chloro-11-((trans-4-(dimethylamino)cyclohexyl)oxy)-3-methyl-5,6,7,10,16,17-hexahydro-1H-benzo[c]pyrido[4,3-k][1]azacyclotridecine-1,15(2H)-dione] | 63 nM | 251 nM
Cc1cc2c(c(=O)[nH]1)CNC(=O)c1cc(Cl)cc(O[C@H]3CC[C@H](N(C)C)CC3)c1C/C=C/CC2 [Example 2, (E)-12-chloro-10-((trans-4-(dimethylamino)cyclohexyl)oxy)-3-methyl-5,6,15,16-tetrahydrobenzo[c]pyrido[4,3-j][1]azacyclododecine-1,14(2H,9H)-dione] | 25 nM | 126 nM
CCN(c1cccc2c1C/C=C/CCc1cc(C)[nH]c(=O)c1CNC2=O)C1CCN(C)CC1 [Example 33, (E)-10-(ethyl(1-methylpiperidin-4-yl)amino)-3-methyl-5,6,15,16-tetrahydrobenzo[c]pyrido[4,3-j][1]azacyclododecine-1,14(2H,9H)-dione] | 40 nM | 200 nM
CCN(c1cccc2c1CCCCCCc1cc(C)[nH]c(=O)c1CNC2=O)C1CCOCC1 [Example 20, 11-(ethyl(tetrahydro-2H-pyran-4-yl)amino)-3-methyl-5,6,7,8,9,10,16,17-octahydro-1H-benzo[c]pyrido[4,3-k][1]azacyclotridecine-1,15(2H)-dione] | 25 nM | 1000 nM
CCN(c1cccc2c1CC=CCOCc1cc(C)[nH]c(=O)c1CNC2=O)C1CCOCC1 (racemic) [Example 12, (E)- and (Z)-11-(ethyl(tetrahydro-2H-pyran-4-yl)amino)-3-methyl-7,10,16,17-tetrahydrobenzo[h]pyrido[4,3-c][1,6]oxaazacyclotridecine-1,15(2H,5H)-dione] | 126 nM | 200 nM
